Earlier results on three compounds are cited in US20080176908A1, “Method of using squalene monooxygenase inhibitors to treat acne” (priority 2007, published 2008).

For this data set the following is noted: compared with 2.5% hydrocortisone; test details not given.
On to `Cc1cc(C2CCCCC2)n(O)c(=O)c1` [Ciclopirox, 6-cylcohexyl-1-hydroxy-4-methyl-pyridin-2-one], for which the anti-inflammatory ability result is listed as “greater anti-inflammatory ability than 2.5% hydrocortisone”. For `CN(C/C=C/c1ccccc1)Cc1cccc2ccccc12` [naftifine, (E)-N-cinnamyl-N-methyl-1-naphthalenemethylamine], the anti-inflammatory ability result is on record as “greater anti-inflammatory ability than 2.5% hydrocortisone”.

For the compound `CN(CC=CC#CC(C)(C)C)Cc1cccc2ccccc12` [terbinafine, N,6,6-trimethyl-N-(naphthalene-1-ylmethyl)hept-2-en-4-yn-1-amine], the anti-inflammatory ability result is given as “greater anti-inflammatory ability than 2.5% hydrocortisone”.
